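Cultured in 96-well plates, cells were exposed to test compound for 48 hours across five concentrations. GI50 marks 50% less growth. TGI is the concentration that stops growth completely.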
Tests used:
Assay in all cases: inhibition of tumour cell growth, NCI panel, 48 h
SF-539 CNS = test system: SF-539 CNS
SK-MEL-28 melanoma = test system: SK-MEL-28 melanoma
HT29 colon = test system: HT29 colon
SN12C renal = test system: SN12C renal
K-562 leukemia = test system: K-562 leukemia
IGROV1 ovarian = test system: IGROV1 ovarian
RPMI-8226 leukemia = test system: RPMI-8226 leukemia
OVCAR-8 ovarian = test system: OVCAR-8 ovarian
TK-10 renal = test system: TK-10 renal
SF-268 CNS = test system: SF-268 CNS
MCF7 breast = test system: MCF7 breast
SF-295 CNS = test system: SF-295 CNS
M14 melanoma = test system: M14 melanoma
T-47D breast = test system: T-47D breast
HCT-116 colon = test system: HCT-116 colon
U251 CNS = test system: U251 CNS
NCI-H460 lung = test system: NCI-H460 lung
HOP-92 NSCLC = test system: HOP-92 NSCLC
ACHN renal = test system: ACHN renal
COLO 205 colon = test system: COLO 205 colon
OVCAR-4 ovarian = test system: OVCAR-4 ovarian
UACC-257 melanoma = test system: UACC-257 melanoma
DU-145 prostate = test system: DU-145 prostate
SR leukemia = test system: SR leukemia
EKVX NSCLC = test system: EKVX NSCLC
LOX IMVI melanoma = test system: LOX IMVI melanoma
MDA-MB-435 = test system: MDA-MB-435
UACC-62 melanoma = test system: UACC-62 melanoma
HCT-15 colon = test system: HCT-15 colon
HS 578T breast = test system: HS 578T breast
SK-MEL-5 melanoma = test system: SK-MEL-5 melanoma
RXF 393 renal = test system: RXF 393 renal
SK-MEL-2 melanoma = test system: SK-MEL-2 melanoma
CCRF-CEM leukemia = test system: CCRF-CEM leukemia
786-0 renal = test system: 786-0 renal
A498 renal = test system: A498 renal
UO-31 renal = test system: UO-31 renal
HOP-62 NSCLC = test system: HOP-62 NSCLC
CAKI-1 renal = test system: CAKI-1 renal
BT-549 breast = test system: BT-549 breast
A549 NSCLC = test system: A549 NSCLC
MDA-MB-231 breast = test system: MDA-MB-231 breast
PC-3 prostate = test system: PC-3 prostate
SW-620 colon = test system: SW-620 colon
KM12 colon = test system: KM12 colon
MOLT-4 leukemia = test system: MOLT-4 leukemia
HCC-2998 colon = test system: HCC-2998 colon
NCI-H226 lung = test system: NCI-H226 lung
SK-OV-3 ovarian = test system: SK-OV-3 ovarian
NCI/ADR-RES ovarian = test system: NCI/ADR-RES ovarian
NCI-H522 lung = test system: NCI-H522 lung
NCI-H23 lung = test system: NCI-H23 lung
SNB-75 CNS = test system: SNB-75 CNS
OVCAR-3 ovarian = test system: OVCAR-3 ovarian
SNB-19 CNS = test system: SNB-19 CNS
MALME-3M melanoma = test system: MALME-3M melanoma
OVCAR-5 ovarian = test system: OVCAR-5 ovarian
HL-60(TB) leukemia = test system: HL-60(TB) leukemia

## CCOC(=O)c1c(NCC(=O)Nc2cccc([N+](=O)[O-])c2)sc2c1CCCC2
SF-539 CNS
  GI50: 242 nM
  TGI: 644 nM
SK-MEL-28 melanoma
  GI50: 235 nM
  TGI: 596 nM
HT29 colon
  GI50: 273 nM
  TGI: 1060 nM
SN12C renal
  GI50: 256 nM
  TGI: 793 nM
K-562 leukemia
  GI50: 278 nM
IGROV1 ovarian
  GI50: 236 nM
  TGI: 738 nM
RPMI-8226 leukemia
  GI50: 310 nM
  TGI: 1060 nM
OVCAR-8 ovarian
  GI50: 351 nM
  TGI: > 100000 nM
TK-10 renal
  GI50: 256 nM
  TGI: 782 nM
SF-268 CNS
  GI50: 354 nM
  TGI: 1690 nM
MCF7 breast
  GI50: 272 nM
  TGI: 974 nM
SF-295 CNS
  GI50: 310 nM
  TGI: 1180 nM
M14 melanoma
  GI50: 183 nM
  TGI: 361 nM
T-47D breast
  GI50: 728 nM
  TGI: 3120 nM
HCT-116 colon
  GI50: 263 nM
  TGI: 805 nM
U251 CNS
  GI50: 284 nM
  TGI: 979 nM
NCI-H460 lung
  GI50: 265 nM
  TGI: 707 nM
HOP-92 NSCLC
  GI50: 209 nM
  TGI: 696 nM
ACHN renal
  GI50: 281 nM
  TGI: 795 nM
COLO 205 colon
  GI50: 274 nM
  TGI: 774 nM
OVCAR-4 ovarian
  GI50: 338 nM
  TGI: 3730 nM
UACC-257 melanoma
  GI50: 401 nM
  TGI: 2130 nM
DU-145 prostate
  GI50: 316 nM
  TGI: 1360 nM
SR leukemia
  GI50: 276 nM
EKVX NSCLC
  GI50: 718 nM
  TGI: 3640 nM
LOX IMVI melanoma
  GI50: 195 nM
  TGI: 405 nM
MDA-MB-435
  GI50: 328 nM
  TGI: 1090 nM
UACC-62 melanoma
  GI50: 173 nM
  TGI: 380 nM
HCT-15 colon
  GI50: 265 nM
  TGI: 1330 nM
HS 578T breast
  GI50: 264 nM
  TGI: 773 nM
SK-MEL-5 melanoma
  GI50: 182 nM
  TGI: 354 nM
RXF 393 renal
  GI50: 182 nM
  TGI: 360 nM
SK-MEL-2 melanoma
  GI50: 436 nM
  TGI: 2290 nM
CCRF-CEM leukemia
  GI50: 253 nM
786-0 renal
  GI50: 271 nM
  TGI: 840 nM
A498 renal
  GI50: 194 nM
  TGI: 392 nM
UO-31 renal
  GI50: 198 nM
  TGI: 583 nM
HOP-62 NSCLC
  GI50: 416 nM
  TGI: 1990 nM
CAKI-1 renal
  GI50: 251 nM
  TGI: 735 nM
BT-549 breast
  GI50: 211 nM
  TGI: 605 nM
A549 NSCLC
  GI50: 301 nM
  TGI: 2680 nM
MDA-MB-231 breast
  GI50: 280 nM
  TGI: 1010 nM
PC-3 prostate
  GI50: 250 nM
  TGI: 726 nM
SW-620 colon
  GI50: 315 nM
  TGI: 1210 nM
KM12 colon
  GI50: 315 nM
  TGI: 966 nM
MOLT-4 leukemia
  GI50: 246 nM
  TGI: 4160 nM
HCC-2998 colon
  GI50: 207 nM
  TGI: 499 nM
NCI-H226 lung
  GI50: 194 nM
  TGI: 471 nM
SK-OV-3 ovarian
  GI50: 294 nM
  TGI: 856 nM
NCI/ADR-RES ovarian
  GI50: 267 nM
  TGI: 762 nM
NCI-H522 lung
  GI50: 226 nM
  TGI: 739 nM
NCI-H23 lung
  GI50: 217 nM
  TGI: 722 nM
SNB-75 CNS
  GI50: 214 nM
  TGI: 1690 nM
OVCAR-3 ovarian
  GI50: 289 nM
  TGI: 770 nM
SNB-19 CNS
  GI50: 306 nM
  TGI: 1080 nM
MALME-3M melanoma
  GI50: 181 nM
  TGI: 407 nM
OVCAR-5 ovarian
  GI50: 270 nM
  TGI: 779 nM
HL-60(TB) leukemia
  GI50: 280 nM
  TGI: 4200 nM

Reference: PubChem BioAssay (NCI)
